US12018059B2, “Human amylin analog polypeptides and methods of use” (Intarcia Therapeutics, Inc., priority 2018, dated 2024)
Positions of bridges follow the written chain, without caps; N, C: chain ends. Non-standard residues stand in square brackets, D forms with d. Residues, ends and D or L forms follow the SMILES beside them.

test: Pharmacokinetics, 3-hour intravenous infusion of linear (non-acylated) polypeptides; parameters: species or system Sprague-Dawley rats; conditions: rat, in vivo, 0.1 mg/kg; linear polypeptides; 3-hour intravenous infusion, 0.100 mg/kg, male Sprague-Dawley rats; read-out: CL
Description: Peptides were dissolved in sterile saline and administered as a 3-hour intravenous infusion to non-fasted male Sprague-Dawley rats (n=3 per group) via femoral vein cannula at a final dose of 0.100 mg/kg. […] Blood samples (approximately 250 μL) were collected for pharmacokinetic analysis via a jugular vein cannula at 0.25, 0.5, 1, 2, 3, 3.17, 3.33, 3.5, 4, 4.5, 5, and 6 hr post-start of infusion (long method) or at 1, 1.5, 2, 2.5, and 3 hr post-start of infusion (steady-state screening method). All samples were collected into microtainer tubes containing K2EDTA as anticoagulant and 25 μL of a protease inhibitor cocktail. Plasma was prepared by centrifugation and stored at −80° C. until analysis. The results of this analysis are shown in Table 9 and few exemplars in FIGS. 3a-3b.
A 60 μL aliquot of each plasma sample was placed into to a 96-well plate. To each well was added 6 μL of 0.5% Tween-20. Plates were then vortexed mixed for 10 minutes at 1200 rpm before 180 μL of 0.1% TFA in 2:1 ethanol:acetonitrile containing an appropriate internal standard was added to each well. Plates were vortex mixed for 5 min at 1300 rpm, and then centrifuged for 10 min at 2844×g. Supernatants (180 μL) were placed into a clean 96-well plate and evaporated under a nitrogen stream at 45° C. Residues were reconstituted in 80 μL of 20% acetonitrile (aq) containing 0.1% formic acid.
A […] aliquot of each plasma sample was diluted with […] of 10 mM ammonium acetate (pH 6.8) containing an appropriate internal standard and loaded onto an Oasis WCX microElution plate (Waters Corporation, Milford, MA) that had been pre-conditioned with […] of methanol and […] of deionized water. Samples were washed with […] of 5% ammonium hydroxide (aq) followed by […] of 20% acetonitrile in water. The analyte was eluted with […] of 5% formic acid in 75:25 acetonitrile:water. The eluent was dried under a nitrogen stream. Residues were reconstituted in 80 μL of 20% acetonitrile (aq) containing 0.1% formic acid.
All calibration standards were prepared in control rat plasma containing K2EDTA and protease inhibitor cocktail.
Samples and standards were analyzed by TurbolonSpray™ UPLC-MS/MS using a system consisting of a CTC HTS PAL auto-injector (Leap, Carrboro, NC), an Agilent Infinity 1290 system with column oven (Palo Alto, CA), a Valco switching valve (Houston, TX), and either an AB Sciex API 5600 TripleTOF™ or Sciex API 4000QTrap mass spectrometer (Framingham, MA). Samples were injected onto a 2.1×50 mm reverse phase C18 analytical column, typically a Waters CORTECS UPLC C18+, 1.6 μm (Waters Corporation, Milford, MA) or similar. […] Initial conditions consisted of 90% A and 10% B. The organic component was increased to 95% B over a period of 3-4 minutes, depending on the peptide. Typical flow rates were 600 μL/min. The column temperature was held constant at 40 or 50° C. Peptides were quantified by monitoring one or more product ions produced from a multiply charged parent ion.

SMILES	clearance [mL/min/kg]
CC[C@H](C)[C@H](NC(=O)[C@@H]1CCCN1C(=O)CNC(=O)[C@H](Cc1ccccc1)NC(=O)[C@H](CCC(=O)O)NC(=O)[C@H](CC(N)=O)NC(=O)[C@H](CO)NC(=O)[C@H](CO)NC(=O)[C@H](CCCNC(=N)N)NC(=O)[C@H](Cc1c[nH]cn1)NC(=O)[C@H](CC(C)C)NC(=O)[C@H](CCC(=O)O)NC(=O)[C@H](CC(N)=O)NC(=O)[C@H](C)NC(=O)[C@H](CC(C)C)NC(=O)[C@H](CCCNC(=N)N)NC(=O)[C@H](CCC(N)=O)NC(=O)[C@@H](NC(=O)[C@H](C)NC(=O)[C@@H]1CSSC[C@H](NC(=O)[C@@H](N)CO)C(=O)N[C@@H](CC(N)=O)C(=O)N[C@@H]([C@@H](C)O)C(=O)N[C@@H](CO)C(=O)N[C@@H]([C@@H](C)O)C(=O)N1)[C@@H](C)O)C(=O)N[C@@H](CC(C)C)C(=O)N1CCC[C@H]1C(=O)N1CCC[C@H]1C(=O)N[C@H](C(=O)N[C@@H](CC(N)=O)C(=O)N[C@H](C(=O)NCC(=O)N[C@@H](CO)C(=O)N[C@@H](CC(N)=O)C(=O)N[C@H](C(=O)N[C@@H](Cc1ccc(O)cc1)C(N)=O)[C@@H](C)O)C(C)C)[C@@H](C)O [Compound A41] (H-SCNTSTCATQRLANELHRSSNEFGPILPPTNVGSNTY-NH2; disulfide 2-7)	17.5
CC[C@H](C)[C@H](NC(=O)[C@@H]1CCCN1C(=O)CNC(=O)[C@H](Cc1ccccc1)NC(=O)[C@H](CC(N)=O)NC(=O)[C@H](CC(N)=O)NC(=O)[C@H](CO)NC(=O)[C@H](CO)NC(=O)[C@H](CCCNC(=N)N)NC(=O)[C@H](Cc1c[nH]cn1)NC(=O)[C@H](CC(C)C)NC(=O)[C@H](Cc1ccc(O)cc1)NC(=O)[C@H](CC(N)=O)NC(=O)[C@H](C)NC(=O)[C@H](CC(C)C)NC(=O)[C@H](CCCNC(=N)N)NC(=O)[C@H](CCC(N)=O)NC(=O)[C@@H](NC(=O)[C@H](C)NC(=O)[C@@H]1CSSC[C@H](NC(=O)[C@@H](N)CO)C(=O)N[C@@H](CC(N)=O)C(=O)N[C@@H]([C@@H](C)O)C(=O)N[C@@H](C)C(=O)N[C@@H](CO)C(=O)N1)[C@@H](C)O)C(=O)N[C@@H](CC(C)C)C(=O)N1CCC[C@H]1C(=O)N1CCC[C@H]1C(=O)N[C@H](C(=O)N[C@@H](CC(N)=O)C(=O)N[C@H](C(=O)NCC(=O)N[C@@H](CO)C(=O)N[C@@H](CC(N)=O)C(=O)N[C@H](C(=O)N[C@@H](Cc1ccc(O)cc1)C(N)=O)[C@@H](C)O)C(C)C)[C@@H](C)O [Compound A61] (H-SCNTASCATQRLANYLHRSSNNFGPILPPTNVGSNTY-NH2; disulfide 2-7)	22.8
CC[C@H](C)[C@H](NC(=O)[C@@H]1CCCN1C(=O)CNC(=O)[C@H](Cc1ccccc1)NC(=O)[C@H](CC(N)=O)NC(=O)[C@H](CC(N)=O)NC(=O)[C@H](CO)NC(=O)[C@H](CO)NC(=O)[C@H](Cc1c[nH]cn1)NC(=O)[C@@H](NC(=O)[C@H](CC(C)C)NC(=O)[C@H](CCC(=O)O)NC(=O)[C@H](CC(N)=O)NC(=O)[C@H](C)NC(=O)[C@H](CC(C)C)NC(=O)[C@H](CCCNC(=N)N)NC(=O)[C@H](CO)NC(=O)[C@@H](NC(=O)[C@H](C)NC(=O)[C@@H]1CSSC[C@H](NC(=O)[C@@H](N)CO)C(=O)N[C@@H](CC(N)=O)C(=O)N[C@@H]([C@@H](C)O)C(=O)N[C@@H](CO)C(=O)N[C@@H]([C@@H](C)O)C(=O)N1)[C@@H](C)O)C(C)C)C(=O)N[C@@H](CC(C)C)C(=O)N1CCC[C@H]1C(=O)N1CCC[C@H]1C(=O)N[C@H](C(=O)N[C@@H](CC(N)=O)C(=O)N[C@H](C(=O)NCC(=O)N[C@@H](CO)C(=O)N[C@@H](CC(N)=O)C(=O)N[C@H](C(=O)N[C@@H](Cc1ccc(O)cc1)C(N)=O)[C@@H](C)O)C(C)C)[C@@H](C)O [Compound A32] (H-SCNTSTCATSRLANELVHSSNNFGPILPPTNVGSNTY-NH2; disulfide 2-7)	19.5

same assay, conditions: rat, in vivo, iv, 0.1 mg/kg

SMILES	clearance [mL/min/kg]
CC[C@H](C)[C@H](NC(=O)[C@@H]1CCCN1C(=O)CNC(=O)[C@H](Cc1ccccc1)NC(=O)[C@H](CCC(=O)O)NC(=O)[C@H](CC(N)=O)NC(=O)[C@H](CO)NC(=O)[C@H](CO)NC(=O)[C@H](CCCCN)NC(=O)[C@@H](NC(=O)[C@H](CC(C)C)NC(=O)[C@H](Cc1ccc(O)cc1)NC(=O)[C@H](CC(N)=O)NC(=O)[C@H](C)NC(=O)[C@H](CC(C)C)NC(=O)[C@H](CCCNC(=N)N)NC(=O)[C@H](CCC(N)=O)NC(=O)[C@@H](NC(=O)[C@H](C)NC(=O)[C@@H]1CSSC[C@H](NC(=O)[C@@H](N)CO)C(=O)N[C@@H](CC(N)=O)C(=O)N[C@@H]([C@@H](C)O)C(=O)N[C@@H](CO)C(=O)N[C@@H]([C@@H](C)O)C(=O)N1)[C@@H](C)O)C(C)C)C(=O)N[C@@H](CC(C)C)C(=O)N1CCC[C@H]1C(=O)N1CCC[C@H]1C(=O)N[C@H](C(=O)N[C@@H](CCCCN)C(=O)N[C@H](C(=O)NCC(=O)N[C@@H](CO)C(=O)N[C@@H](CCC(=O)O)C(=O)N[C@H](C(=O)N[C@@H](Cc1ccc(O)cc1)C(N)=O)[C@@H](C)O)C(C)C)[C@@H](C)O [Compound A15] (H-SCNTSTCATQRLANYLVKSSNEFGPILPPTKVGSETY-NH2; disulfide 2-7)	14.4
CC[C@H](C)[C@H](NC(=O)[C@@H]1CCCN1C(=O)CNC(=O)[C@H](Cc1ccccc1)NC(=O)[C@H](CC(N)=O)NC(=O)[C@H](CC(N)=O)NC(=O)[C@H](CO)NC(=O)[C@H](CO)NC(=O)[C@H](CCCNC(=N)N)NC(=O)[C@H](Cc1c[nH]cn1)NC(=O)[C@H](CC(C)C)NC(=O)[C@H](CCC(=O)O)NC(=O)[C@H](CC(N)=O)NC(=O)[C@H](CO)NC(=O)[C@H](CC(C)C)NC(=O)[C@H](CCCNC(=N)N)NC(=O)[C@H](CCC(N)=O)NC(=O)[C@@H](NC(=O)[C@H](C)NC(=O)[C@@H]1CSSC[C@H](NC(=O)[C@@H](N)CO)C(=O)N[C@@H](CC(N)=O)C(=O)N[C@@H]([C@@H](C)O)C(=O)N[C@@H](CO)C(=O)N[C@@H]([C@@H](C)O)C(=O)N1)[C@@H](C)O)C(=O)N[C@@H](CC(C)C)C(=O)N1CCC[C@H]1C(=O)N1CCC[C@H]1C(=O)N[C@H](C(=O)N[C@@H](CCCCN)C(=O)N[C@H](C(=O)NCC(=O)N[C@@H](CO)C(=O)N[C@@H](CCC(=O)O)C(=O)N[C@H](C(=O)N[C@@H](Cc1ccc(O)cc1)C(N)=O)[C@@H](C)O)C(C)C)[C@@H](C)O [Compound A34] (H-SCNTSTCATQRLSNELHRSSNNFGPILPPTKVGSETY-NH2; disulfide 2-7)	15.5
CC[C@H](C)[C@H](NC(=O)[C@@H]1CCCN1C(=O)CNC(=O)[C@H](Cc1ccccc1)NC(=O)[C@H](CCC(=O)O)NC(=O)[C@H](CC(N)=O)NC(=O)[C@H](CO)NC(=O)[C@H](CO)NC(=O)[C@H](CCCCN)NC(=O)[C@@H](NC(=O)[C@@H](CC(C)C)NC(=O)[C@H](Cc1ccccc1)NC(=O)[C@H](CC(N)=O)NC(=O)[C@H](C)NC(=O)[C@H](CC(C)C)NC(=O)[C@H](CCCNC(=N)N)NC(=O)[C@H](CCC(N)=O)NC(=O)[C@@H](NC(=O)[C@H](C)NC(=O)[C@@H]1CSSC[C@H](NC(=O)[C@@H](N)CO)C(=O)N[C@@H](CC(N)=O)C(=O)N[C@@H]([C@@H](C)O)C(=O)N[C@@H](CO)C(=O)N[C@@H]([C@@H](C)O)C(=O)N1)[C@@H](C)O)C(C)C)C(=O)N[C@@H](CC(C)C)C(=O)N1CCC[C@H]1C(=O)N1CCC[C@H]1C(=O)N[C@H](C(=O)N[C@@H](CCCCN)C(=O)N[C@H](C(=O)NCC(=O)N[C@@H](CO)C(=O)N[C@@H](CCC(=O)O)C(=O)N[C@H](C(=O)N[C@@H](Cc1ccc(O)cc1)C(N)=O)[C@@H](C)O)C(C)C)[C@@H](C)O [Compound A6] (H-SCNTSTCATQRLANF[dL]VKSSNEFGPILPPTKVGSETY-NH2; disulfide 2-7; N-terminus assumed)	26.4
